Source: PubChem BioAssay AID1918945 (Molecular Pharmacology Branch, DTP, NCI, 2023)
Values joined by “and” are separate entries in the source; they are usually repeats but may differ in a detail not shown here. Equal values may be shown once. Blank lines part the entries; values can stand above or below the compound they belong to.

Test system: 883617-216-R-J1-PDC complex spheroid viability
Test: Anticancer human tumor 883617-216-R-J1-PDC patient-derived bladder carcinoma cell line growth inhibition
Conditions: for viability, T/C: stronger effect = lower value
Excerpt: Multicellular complex tumor spheroid response to LSD1 Inhibitor Iadademstat in combination with a variety of drugs and investigational agents in selected tumor cell lines
The current study was undertaken to assess response to LSD1 inhibitors in combination with standard-of-care drugs and investigational agents in solid tumor complex spheroid models as well as in the K-562 leukemia. Complex spheroids include a stromal component modeled by human endothelial cells (HUVEC) and fibroblasts modeled by human mesenchymal stem cells (MSCs). The concentration ranges selected for each drug and investigational agent were based upon clinically achievable concentrations if the clinical Cmax of the agent was known.
Compounds. The drugs and investigational agents used in this study are listed on Table 1. All of the agents used, including staurosporine (NSC755774) and gemcitabine (NSC613327), were obtained from the Developmental Therapeutics Program, NCI. FDA-approved anticancer drugs are available from the NCI at http://dtp.nci.nih.gov/branches/dscb/oncology_drugset_explanation.html. Drugs and investigational agents were >95% pure by proton nuclear magnetic resonance (NMR) and liquid chromatography/mass spectrometry (LC/MS). Stock solutions were prepared at 400x in DMSO, stored at -70 degrees C, and diluted in fresh medium prior to their use. The final concentration of DMSO in cell culture wells never exceeded 0.25% (v/v). The FDA-approved anticancer drug set is available from the Developmental Therapeutics Program at https://dtp.cancer.gov/organization/dscb/obtaining/available_plates.htm. All drugs and investigational agents were tested over a range starting from a high concentration at or near the clinical Cmax and decreasing in half-log increments. If the clinical Cmax for an agent had not been determined, the highest concentration tested was 10 microM.
Cell Lines. The patient-derived cancer cell (PDC) lines: 292921-168-R-J2-PDC, K24384-001-R-PDC, and 521955-158-R2-J5-PDC pancreatic carcinomas, 556581-035-R-J1 ovarian carcinoma, 324938-238-R-J1-PDC, 855422-203-R-J1-PDC and 883617-216-R-J1-PDC urothelial bladder carcinomas, 743489-274-T-PDC renal cell carcinoma, 138582-R-J1 Merkel cell tumor, K60290-347-R-J1 and K57222-313-R-J1-PDC glioblastomas, 653999-131-R-J2-PDC, LG0703-F948-PDC, and 349418-098-R-PDC non-small cell lung carcinomas, 885512-296-R-J2-PDC, 171881-019-R-J1-PDC breast carcinomas and 186277-243-T-J2-PDC and 233499-124-R-J2-PDC colon carcinomas were obtained from the NCI Patient-Derived Models Repository (PDMR, https://pdmr.cancer.gov). The established cell lines NCI/ADR-RES (RRID:CVCL_14520 and OVCAR-5 (RRID:CVCL_1628) ovarian carcinomas, 786-O (RRID:CVCL_1051) and A498 (RRID:CVCL_A498) renal cell carcinoma, NCI-H211 (ATCC, cat. CRL-5824; RRID:CVCL_1529), NCI-H196 (ATCC, cat. CRL-5823, RRID:CVCL_1509), SW 1271 (ATCC, cat. CRL-2177, RRID:CVCL_1716) and NCI-H1876 (ATCC, cat. CRL-5902, RRID:CVCL_1503) small cell lung carcinomas, MDA-MB-231 (RRID:CVCL_0062) and MDA-MB-468 (RRID:CVCL_0419)breast carcinomas (10-12). Pooled donor human umbilical vein endothelial cells (HUVEC, Lonza, cat. CC-2519) and human mesenchymal stem cells (hMSC, Lonza, cat. PT-2501) were purchased from Lonza (Walkersville, MD).
Cell Culture. All cells were maintained in an incubator at 37 degrees C and 5% CO2 with 95% humidity. The PDC lines were cultured according to standard operating procedures established by the NCI PDMR (https://pdmr.cancer.gov). Briefly all PDCs were thawed and cultured in Matrigel-coated flasks prepared with a working solution of 1X Ham's F-12 nutrient mix, without supplementation (Invitrogen, Waltham, MA, cat. 11765054), 100 U/mL penicillin-streptomycin (Invitrogen, cat. 15140122), and 2.5% Matrigel (Corning Inc., Corning, NY, cat. 354248) for the first three passages. […]
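Further: exposure lasted seven days after three days of spheroid growth.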
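Wherever viability, T/C is given: 100% = DMSO vehicle control luminescence.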

Compound: CC(C)c1c(-c2ccccc2)nc2c(C#N)c[nH]n2c1=O
- viability, T/C (compound 0.0316 µM): 97.4% and 97.3%
- viability, T/C (compound 0.1 µM): 97.7% and 103%
- viability, T/C (compound 0.316 µM): 104% and 111%
- viability, T/C (compound 1 µM): 96% and 94.4%
- viability, T/C (compound 3.16 µM): 98.8% and 101%
- viability, T/C (compound 10 µM): 86.8% and 86.7%
- IC50 (curve of compound): > 10000 nM

Compound: CC1COCCN1c1cc(C2(S(C)(=N)=O)CC2)nc(-c2ccnc3[nH]ccc23)n1 (stereo not given)
- viability, T/C (compound 0.0316 µM): 103% and 94.9%
- viability, T/C (compound 0.1 µM): 98.4% and 71.9%
- viability, T/C (compound 0.316 µM): 65.3% and 47.5%
- viability, T/C (compound 1 µM): 44.2% and 42.4%
- viability, T/C (compound 3.16 µM): 39.6% and 31.8%
- viability, T/C (compound 10 µM): 28.1% and 23.8%
- IC50 (curve of compound): 721 nM and 377 nM

Compound: COc1ccc([C@@H](O)c2cc(-c3ncnc4cc(N5CCOCC5)ccc34)c(F)cc2Cl)nn1
- viability, T/C (compound 0.0316 µM): 91.2% and 99.6%
- viability, T/C (compound 0.1 µM): 89.8% and 86.9%
- viability, T/C (compound 0.316 µM): 67.2% and 52.7%
- viability, T/C (compound 1 µM): 48.6% and 41.2%
- viability, T/C (compound 3.16 µM): 37.1% and 26.7%
- viability, T/C (compound 10 µM): 22.2% and 14.9%
- IC50 (curve of compound): 1000 nM and 524 nM

Compound: NC1CC1c1ccc(-c2cccc(O)c2)cc1 (stereo not given)
- viability, T/C (compound 0.1 µM): 107%
- IC50 (compound alone, run of 12/07/2021): > 10000 nM

Compound: NC1CCC(NC2CC2c2ccccc2)CC1 (stereo not given)
- viability, T/C (compound 0.1 µM): 103% [middle of 25 runs]
- viability, T/C (compound 0.316 µM): 107% and 112%
- viability, T/C (compound 1 µM): 104% [middle of 25 runs]
- viability, T/C (compound 3.16 µM): 105% [middle of 25 runs]
- viability, T/C (compound 10 µM): 107% [middle of 23 runs]
- IC50 (compound alone, run of 11/29/2021): > 10000 nM

Compound: Nc1ncn(C2CC(O)C(CO)O2)c(=O)n1 (stereo not given) + NC1CC1c1ccc(-c2cccc(O)c2)cc1
- IC50 (curve of first compound, second compound 0.1 µM): > 1000 nM
- IC50 (curve of first compound, second compound 0.316 µM): > 1000 nM
- IC50 (curve of first compound, second compound 1 µM): > 1000 nM
- IC50 (curve of first compound, second compound 3.16 µM): > 1000 nM
- IC50 (curve of first compound, second compound 10 µM): > 1000 nM
- viability, T/C (second compound 0.1 µM, first compound 0.00316 µM): 104%
- viability, T/C (second compound 0.1 µM, first compound 0.01 µM): 101%
- viability, T/C (second compound 0.1 µM, first compound 0.0316 µM): 87.3%
- viability, T/C (second compound 0.1 µM, first compound 0.1 µM): 75.2%
- viability, T/C (second compound 0.1 µM, first compound 0.316 µM): 64.7%
- viability, T/C (second compound 0.1 µM, first compound 1 µM): 56.8%
- viability, T/C (second compound 0.316 µM, first compound 0.00316 µM): 110%
- viability, T/C (second compound 0.316 µM, first compound 0.01 µM): 108%
- viability, T/C (second compound 0.316 µM, first compound 0.0316 µM): 87.5%
- viability, T/C (second compound 0.316 µM, first compound 0.1 µM): 76.5%
- viability, T/C (second compound 0.316 µM, first compound 0.316 µM): 67.7%
- viability, T/C (second compound 0.316 µM, first compound 1 µM): 65.1%
- viability, T/C (second compound 1 µM, first compound 0.00316 µM): 110%
- viability, T/C (second compound 1 µM, first compound 0.01 µM): 122%
- viability, T/C (second compound 1 µM, first compound 0.0316 µM): 96.8%
- viability, T/C (second compound 1 µM, first compound 0.1 µM): 83%
- viability, T/C (second compound 1 µM, first compound 0.316 µM): 65.9%
- viability, T/C (second compound 1 µM, first compound 1 µM): 56.1%
- viability, T/C (second compound 3.16 µM, first compound 0.00316 µM): 107%
- viability, T/C (second compound 3.16 µM, first compound 0.01 µM): 114%
- viability, T/C (second compound 3.16 µM, first compound 0.0316 µM): 92.9%
- viability, T/C (second compound 3.16 µM, first compound 0.1 µM): 74.8%
- viability, T/C (second compound 3.16 µM, first compound 0.316 µM): 60.5%
- viability, T/C (second compound 3.16 µM, first compound 1 µM): 51.8%
- viability, T/C (second compound 10 µM, first compound 0.00316 µM): 107%
- viability, T/C (second compound 10 µM, first compound 0.01 µM): 86.5%
- viability, T/C (second compound 10 µM, first compound 0.0316 µM): 74%
- viability, T/C (second compound 10 µM, first compound 0.1 µM): 64.5%
- viability, T/C (second compound 10 µM, first compound 0.316 µM): 61.7%
- viability, T/C (second compound 10 µM, first compound 1 µM): 52.1%

The next lines start with results.

- IC50 (curve of compound): 7890 nM and 7100 nM
Compound: CC1(C)CCC(CN2CCN(c3ccc(C(=O)NS(=O)(=O)c4ccc(NCC5CCOCC5)c([N+](=O)[O-])c4)c(Oc4cnc5[nH]ccc5c4)c3)CC2)=C(c2ccc(Cl)cc2)C1
- viability, T/C (compound 0.0316 µM): 107% and 103%
- viability, T/C (compound 0.1 µM): 111% and 102%
- viability, T/C (compound 0.316 µM): 111% and 99%
- viability, T/C (compound 1 µM): 109% and 106%
- viability, T/C (compound 3.16 µM): 111% and 102%
- viability, T/C (compound 10 µM): 34.5% and 27.7%

- IC50 (curve of compound): > 3000 nM
Compound: CCN(c1cc(-c2ccc(CN3CCOCC3)cc2)cc(C(=O)NCc2c(C)cc(C)[nH]c2=O)c1C)C1CCOCC1
- viability, T/C (compound 0.00949 µM): 98.4% and 76.7%
- viability, T/C (compound 0.03 µM): 84.1% and 80.7%
- viability, T/C (compound 0.0949 µM): 85.5% and 79.5%
- viability, T/C (compound 0.3 µM): 87.4% and 70.5%
- viability, T/C (compound 0.949 µM): 89.7% and 63.1%
- viability, T/C (compound 3 µM): 77.4% and 63.9%

- IC50 (curve of compound): 4910 nM and 633 nM
Compound: O=C(c1cc(Cc2n[nH]c(=O)c3ccccc23)ccc1F)N1CCN(C(=O)C2CC2)CC1
- viability, T/C (compound 0.0316 µM): 90.5% and 78.2%
- viability, T/C (compound 0.1 µM): 99.3% and 78.3%
- viability, T/C (compound 0.316 µM): 92.2% and 59.4%
- viability, T/C (compound 1 µM): 75.5% and 42.5%
- viability, T/C (compound 3.16 µM): 54.9% and 41.5%
- viability, T/C (compound 10 µM): 43.3% and 30.9%
